# Values quoted from earlier work in patent publication US8273706B2, “Isobarically labeled analytes and fragment ions derived therefrom” (DH Technologies Development Pte. Ltd., priority 2004, dated 2012).
# Details: alcohol (leaving group) whose trifluoroacetate ester forms the active ester of N-methyl piperazine acetic acid
row,pKa,Compound
1,7.78,"O=c1c2ccccc2nnn1O [Dhbt, 3-hydroxy-1,2,3-benzotriazine-4(3H)-one]"
2,9.38,"O=C1CCCN1O [NHP, N-hydroxypyrrolidinone]"
3,7.80,"O=C1CCC(=O)N1O [NHS, N-hydroxysuccinimide]"

row,Compound,pKa
1,"O=[N+]([O-])c1cccc(O)c1 [3-NP, 3-nitrophenol]",8.33
2,"Oc1c(Cl)c(Cl)c(Cl)c(Cl)c1Cl [Pcp, pentachlorophenol]",4.68
